Reference: ChEMBL document CHEMBL1250493, “Interaction of daunomycin with acetylated chromatin” (J Med Chem, 2010)

Tests used:
Gallus gallus [1] = organism: Gallus gallus; assay: Binding affinity to histone H1 containing chromatin in chicken erythroleukemic cells mononucleosomes transformed with Marek's virus by Scatchard plot analysis
Gallus gallus [2] = organism: Gallus gallus; assay: Binding affinity to histone H1 depleted chromatin in chicken erythroleukemic cells mononucleosomes transformed with Marek's virus by Scatchard plot analysis

`COc1cccc2c1C(=O)c1c(O)c3c(c(O)c1C2=O)C[C@@](O)(C(C)=O)C[C@@H]3O[C@H]1C[C@H](N)[C@H](O)[C@H](C)O1` showed a K (Gallus gallus [1]) of 4.6 ×10⁴ /M and a K (Gallus gallus [2]) of 6.4 ×10⁴ /M.
